Consider eight compounds from ChEMBL document CHEMBL5137063, “Medicinal Chemistry and Chemical Biology of Nurr1 Modulators: An Emerging Strategy in Neurodegeneration” (J Med Chem, 2022).

SMILES strings stand for the structures.

The target of experiment [1] is T1, Nuclear receptor subfamily 4 group A member 2 (Homo sapiens, UniProt P43354). The experiment in a line: Agonist activity at human Nurr1 measured by Gal4-Nurr1 hybrid reporter gene assay. In general terms: A reporter such as luciferase makes a cellular process visible.
Experiment [2] addresses T1, Nuclear receptor subfamily 4 group A member 2. The experiment in a line: Antagonist activity at full length human Nurr1 expressed in MN9D cells co-expressing 3xNBRE3-luciferase at 50 uM incubated for 18 hrs by luciferase transactivation assay relative to control. The class given is cell-based. On the set-up: scale not given: the % may be the effect or the level left.

The target is the same in experiment [3]. The experiment in a line: Antagonist activity at full length human Nurr1 expressed in HEK293T cells co-expressing 3xNBRE3-luciferase at 50 uM incubated for 18 hrs by luciferase transactivation assay relative to control. More on the design: scale not given: the % may be the effect or the level left. The class given is cell-based.
For experiment [4], the target named is T2, Nuclear receptor subfamily 4 group A member 2 (Rattus norvegicus, UniProt Q07917). In words: Agonist activity at Nurr1 in rat N27-A cells measured by Gal4-based luciferase reporter gene assay. The class given is cell-based.
Experiment [5] has as its target T1, Nuclear receptor subfamily 4 group A member 2. The experiment in a line: Agonist activity at Nurr1 in human SK-N-BE(2)-C cells measured by Gal4-based luciferase reporter gene assay. The class given is cell-based.
In experiment [6] the target is T3, Nuclear receptor subfamily 4 group A member 2 (Mus musculus, UniProt Q06219). In words: Agonist activity at Nurr1 in mouse MN9D cells measured by NBRE-based luciferase reporter gene assay. The class given is cell-based.
The target of experiment [7] is T1, Nuclear receptor subfamily 4 group A member 2. In words: Agonist activity at Nurr1 in human SK-N-BE(2)-C cells measured by NBRE-based luciferase reporter gene assay. The class given is cell-based.
Experiment [8] concerns the target T2, Nuclear receptor subfamily 4 group A member 2. The experiment in a line: Agonist activity at Nurr1 in rat N27-A cells measured by NBRE-based luciferase reporter gene assay. The class given is cell-based.
Experiment [9] addresses T3, Nuclear receptor subfamily 4 group A member 2. The experiment in a line: Agonist activity at Nurr1 in mouse MN9D cells measured by Gal4-based luciferase reporter gene assay. The experiment is classed as cell-based.
The target of experiment [10] is T1, Nuclear receptor subfamily 4 group A member 2. The experiment in a line: Agonist activity at Nurr1 ligand binding domain (unknown origin) measured by Gal4-based reporter gene assay.
The target is the same in experiment [11]. In words: Binding affinity towards Nurr1 ligand binding domain (unknown origin) measured by tryptophan fluorescence spectroscopy.

T3 sequence (Q06219 whole entry): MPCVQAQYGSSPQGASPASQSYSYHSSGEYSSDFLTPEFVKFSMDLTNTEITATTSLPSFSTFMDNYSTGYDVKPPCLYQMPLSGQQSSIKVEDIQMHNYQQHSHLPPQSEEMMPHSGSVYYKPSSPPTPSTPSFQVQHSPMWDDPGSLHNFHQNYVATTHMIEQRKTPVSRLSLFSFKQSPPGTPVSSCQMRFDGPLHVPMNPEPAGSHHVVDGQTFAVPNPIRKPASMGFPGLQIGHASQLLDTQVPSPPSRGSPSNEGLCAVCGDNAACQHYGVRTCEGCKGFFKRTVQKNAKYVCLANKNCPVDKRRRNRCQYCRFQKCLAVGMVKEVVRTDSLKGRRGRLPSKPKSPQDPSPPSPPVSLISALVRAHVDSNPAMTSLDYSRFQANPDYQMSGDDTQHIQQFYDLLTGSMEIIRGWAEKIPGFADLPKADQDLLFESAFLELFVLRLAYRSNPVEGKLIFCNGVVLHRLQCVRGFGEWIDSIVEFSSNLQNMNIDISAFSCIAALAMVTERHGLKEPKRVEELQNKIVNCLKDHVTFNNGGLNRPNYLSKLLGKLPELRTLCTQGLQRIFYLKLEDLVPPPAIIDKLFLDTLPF
T1 sequence (P43354 whole entry, the tested form may be a part): as the sequence (Q06219 whole entry) above, with S131T, S134G, D354E counted along it
T2 sequence (Q07917 whole entry, the tested form may be a part): as the sequence (Q06219 whole entry) above, with S134G, P182R counted along it

For `Fc1ccc(-c2c[nH]c3ccccc23)cc1`, it took 7.7 µM to reach a half-maximal effect in experiment [1] (EC50).

`CC/C=C\C/C=C\C/C=C\C/C=C\C/C=C\C/C=C\CCC(=O)O`: the Activity in experiment [2] and in experiment [3] was 25% in each case.

Take `CCCCC[C@H](O)/C=C/[C@H]1[C@H](O)CC(=O)[C@@H]1CCCCCCC(=O)O` [ALPROSTADIL]: the EC50 in experiment [4], in [5], in [6], in experiment [7], in [8] and in experiment [9] was 3 µM in each case.

As to `CCN(CC)Cc1cc(Nc2ccnc3cc(Cl)ccc23)ccc1O` [AMODIAQUINE], the EC50 (commonly the concentration at which the effect is half-maximal) in experiment [10] amounted to 20 µM.

On to `CCCCC/C=C\C/C=C\C/C=C\C/C=C\CCCC(=O)O` [ARACHIDONIC ACID], for which, in experiment [11], the Kd (usually the free concentration of one partner at which half of the binding sites on the other are occupied at equilibrium, for simple one-to-one binding) amounted to 50 µM.

In turn, `CCCCC/C=C\C/C=C\CCCCCCCC(=O)O` [LINOLEIC ACID] registered a Kd in experiment [11] of 50 µM.

As for `CCCCCCCC/C=C\CCCCCCCC(=O)O` [OLEIC ACID], the Kd in experiment [11] was 50 µM.

In the case of `CCCCC[C@H](O)/C=C/[C@H]1C=CC(=O)[C@@H]1CCCCCCC(=O)O` [PROSTAGLANDIN A1], the EC50 in [4], in experiment [5], in experiment [6], in [7], in experiment [8] and in [9] was 5 µM throughout.
